Our source for the growth inhibition and colonies formed values is patent US11124485B2, “Deoxyuridine triphosphatase inhibitors containing cyclopropano linkage” (CV6 Therapeutics (NI) Limited, priority 2015, dated 2021).

Assay [1] relates to colorectal (HCT116 and SW620) cell line models. Briefly: MTS growth inhibition assay. It counts as cell-based. The conditions noted are these: increasing concentrations of 5-FU between 0 and 100 μmol/L; both colorectal cancer cell lines. The protocol:
The Cell Titer AQueous MTS assay (Promega) is carried out according to the manufacturers guidelines. […] The combination effect is determined by the combination index (CI) method utilizing Calcusyn software (Biosoft, Ferguson, Mo.). Fraction affected (FA) is calculated from the percent growth inhibition: FA=(100−% growth inhibition)/100.
Test compounds are evaluated for their antitumor activity in colorectal cancer cells using the MTS growth inhibition assay. HCT116 and SW620 cells are exposed to increasing concentrations of each agent for 72 hours and growth inhibition is directly compared to vehicle-treated controls. The NSCLC cell lines A549 and H1299 are exposed to increasing concentrations of each agent for 72 hours and growth inhibition is directly compared to vehicle-treated controls.
MTS growth inhibition assays are performed to evaluate the effectiveness of the test compounds alone and in combination with the fluoropyrimidine thymidylate synthase (TS) inhibitor 5-fluorouracil (5-FU) at inhibiting the growth of colorectal (HCT116 and SW620) cell line models. […] Simultaneous treatment with increasing concentrations of 5-FU and a test compound at fixed concentrations of 25 μmol/L is determined.
A general note: Formazan colour is commonly taken as a measure of viable cells.

The subject of assay [2] is colorectal (HCT116), breast (MCF-7) and non-small cell lung (H1299, A549, H358 and H460) cell line models. In words: Colony forming assay. Conditions: increasing concentrations of FUdR between 0.5 and 2.5 μmol/L; all cell lines evaluated. It is filed as cell-based. The protocol: Colony forming assay showing the ability of colon (SW620, HCT116), non-small cell lung (A549, H460, H1299 and H358) and breast (MCF7) cancer cells to survive and proliferate following transient 24 hour exposure to test compounds, FUdR and combinations are determined. Specifically, cells are seeded at densities between 50 and 100 cells/well in 24-well plates. Twenty-four hours later, cells are treated with increasing concentrations of a test compound, a fixed dose of FUdR and combinations of these. After 24 hours, drug is removed, cells are rinsed and allowed to outgrow for 10-14 days. At the conclusion of the outgrowth, cells are fixed in 60% ice cold methanol and stained with 0.1% crystal violet, scanned and counted. Data is presented as percentage of untreated controls (mean±SD). Fraction affected and combination indexes are calculated according to the method of Chou and Talalay where <1 is indicative of a synergistic drug interaction.
Colony forming assays are performed to evaluate the effectiveness of test compounds alone and in combination with the fluoropyrimidine thymidylate synthase (TS) inhibitor fluorodeoxyuridine (FUdR) at reducing cancer cell viability in colorectal (HCT116), breast (MCF-7) and non-small cell lung (H1299, A549, H358 and H460) cell line models. […]

For `O=c1[nH]cc(F)c(=O)[nH]1` [Compound 5-FU, 5-fluorouracil], the growth inhibition entry in assay [1] is on record as “dose-dependent increases in growth inhibition”. On to `O=c1[nH]c(=O)n([C@H]2C[C@H](O)[C@@H](CO)O2)cc1F` [FUdR, fluorodeoxyuridine], for which the colonies formed result in assay [2] is recorded as “dose-dependent decreases in colonies formed”.
